Data as given in patent publication US12180474B2, “Methods of treating porphyria” (University of Pittsburgh—Of the Commonwealth System of …, priority 2018, dated 2024).

Assays:
Assay type in all cases: in vivo
Porcupine (PORCN) [1] = molecular target: T1, Porcupine (PORCN) (Mus musculus, UniProt Q9JJJ7); test: Wnt-C59 in WT1/WT2 mice, acute intermittent porphyria model (Example 3); conditions: 30 mg/kg i.p., vs control group
T1 construct: from tissue; host or cells: whole mouse in vivo; liver and serum analysed
T1 sequence (Q9JJJ7 1-461): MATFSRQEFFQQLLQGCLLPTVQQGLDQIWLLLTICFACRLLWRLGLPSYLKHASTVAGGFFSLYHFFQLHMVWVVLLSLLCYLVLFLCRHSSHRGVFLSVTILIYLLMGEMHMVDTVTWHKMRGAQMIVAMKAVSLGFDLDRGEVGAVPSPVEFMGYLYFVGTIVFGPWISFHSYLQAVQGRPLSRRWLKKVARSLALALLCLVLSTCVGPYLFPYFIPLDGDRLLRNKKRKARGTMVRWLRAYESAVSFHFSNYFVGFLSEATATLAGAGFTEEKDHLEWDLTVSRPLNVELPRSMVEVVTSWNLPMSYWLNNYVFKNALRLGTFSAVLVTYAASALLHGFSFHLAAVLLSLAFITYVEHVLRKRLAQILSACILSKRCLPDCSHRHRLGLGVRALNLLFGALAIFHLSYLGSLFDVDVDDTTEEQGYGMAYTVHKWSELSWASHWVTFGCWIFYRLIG

Porcupine (PORCN) [2] = molecular target: T1, Porcupine (PORCN); test: Wnt-C59 in DDC-fed CD-1 mice (Example 2); conditions: 30 mg/kg i.p.
Procedure: Two-month old CD-1 mice were started on a 0.1% DDC diet to induce porphyria. Three days after starting the diet, mice received intraperitoneal (i.p.) injections of 30 mg/kg Porcupine (PORCN) inhibitor Wnt-C59. The Wnt-C59 was delivered on a five days on, two days off schedule for two weeks. Mice were sacrificed 6 hours after the final dose of Wnt-C59. Serum and livers from the control and experimental groups were utilized for IHC, Western blotting, and biochemical assays, as described in Example 1.

Porcupine (PORCN) [3] = molecular target: T1, Porcupine (PORCN); test: Wnt-C59, GS and p-mTOR IHC in DDC-fed WT1/WT2 mice (Example 4)
Description: To test the effect of Wnt-C59 on GS and p-mTOR levels, two-month old WT1/WT2 mice were exposed to a DCC diet, as described in Example 1, and received i.p. injections of Wnt-C59, as described in Example 2. Livers from the control and experimental groups were utilized for IHC, as described in Example 1.

[4] = five days on, two days off for two weeks, 0.1% DDC diet

With `Cc1cc(-c2ccc(CC(=O)Nc3ccc(-c4cccnc4)cc3)cc2)ccn1` [Wnt-C59] the “ALA-D mRNA levels” value (Porcupine (PORCN) [1]) was “significantly reduced”, the “ALA-S mRNA levels” value (Porcupine (PORCN) [1]) was “significantly reduced” and the “glutamine synthetase (GS), β-catenin activity” value (Porcupine (PORCN) [2]; DDC diet) was “decrease”. The “porphyrin accumulation (H&E)” value (Porcupine (PORCN) [2]; DDC diet) was “decreased”, the “serum ALP” value (Porcupine (PORCN) [2]; [4]) was “significantly reduced” and the “serum ALT” value (Porcupine (PORCN) [2]; [4]) was “significantly reduced”. For the same compound, the “serum AST” value (Porcupine (PORCN) [2]; [4]) was “significantly reduced”, the serum total bilirubin (Porcupine (PORCN) [2]; [4]) was “significantly reduced” and the “p-mTOR protein expression (IHC)” value (Porcupine (PORCN) [3]; DCC diet and Wnt-C59 injection) was “no expression”. For the same compound, the “GS protein expression (IHC)” value (Porcupine (PORCN) [3]; DDC diet and Wnt-C59 injection) was “no expression”.
